Data taken from US20240417410A1, “TRICYCLIC COMPOUNDS FOR THE TREATMENT OF CANCER” (Hoffmann-La Roche Inc., priority 2023, published 2024).
Like-named read-outs stand apart in the source and are kept apart here.

Tests used:
Experiment in all cases: Cell proliferation, CTG 3D, 7 d
Assay type in all cases: cell-based
OCI-AML-3 = settings: Homo sapiens
Description: (§1) On Day-1, cells were plated in 384-well round-bottom ultra-low adhesion plates (cat. Corning 3830, with cell density adjusted according to Table 3. The assay plate was then centrifuged at 1000 rpm for 1 minute to ensure even distribution of cells. The plate was incubated at 37° C. in a 5% CO2 atmosphere (It is worth noting that for SW1271 cell plate, it needs to be incubated in an incubator without additional CO2).
(§2) On Day 0, Example 24 or A122 was added to each well using a Tecan HP D300E dispenser, with a 3-fold dilution across 9 doses. The final concentration of DMSO was normalized to 0.2%. The assay plate was then centrifuged at 1000 rpm for 1 minute and incubated for 7 days.
(§3) On Day 7, CellTiter-Glo (CTG) 3D reagent (Promega G9683) was dispensed into each well of a 384-well plate using a multi-drop dispenser (Thermo Scientific 66413). A liquid handling automation workstation (Bravo with a 384-well head) was used to mix the CTG reagents. Plates were left on a shaker for 30 minutes at 450 rpm, shielded from light.
(§4) For data analysis, the XL-fit software (Supplier: ID Business Solutions Ltd., Software version: XL fit 5.0) was utilized. The percentage of inhibition was calculated using the formula: Inhibition %=(Max-Sample value)/(Max-Min)×100. Curve fitting was performed as follows: For complete dose-response curves, the relative IC50 was reported from the fit. For incomplete curves, if minimal inhibition was greater than 50%, an IC50 less than the lowest compound concentration was reported. If minimal inhibition was between 20% and 50%, the bottom was locked at 0% and the IC50 was reported. If maximal inhibition was less than 50%, an IC50 greater than the highest compound concentration was reported.

CHL1 = settings: Homo sapiens, CHL-1; CHL1, KRAS (WT ampl)
Description: as §1, §2, §3, §4

UMC-11 = settings: Homo sapiens; UMC-11, KRAS (WT ampl)
Description: as §1, §2, §3, §4

HPAC = settings: Homo sapiens, KRAS (G12D)
Description: as §1, §2, §3, §4

MDA-MB-231 = settings: Homo sapiens
Description: as §1, §2, §3, §4

NCI-H929 = settings: Homo sapiens
Description: as §1, §2, §3, §4

NCI-H2135 = settings: Homo sapiens
Description: as §1, §2, §3, §4

DLD-1 = settings: Homo sapiens
Description: as §1, §2, §3, §4

Panc 02.03 = settings: Homo sapiens; Panc 02.03, KRAS (G12D)
Description: as §1, §2, §3, §4

NCI-H1792 = settings: Homo sapiens; NCI-H1792, KRAS (G12C)
Description: as §1, §2, §3, §4

LoVo = settings: Homo sapiens
Description: as §1, §2, §3, §4

SNU-387 = settings: Homo sapiens
Description: as §1, §2, §3, §4

SKM-1 = settings: Homo sapiens
Description: as §1, §2, §3, §4

HCT-8 = settings: Homo sapiens
Description: as §1, §2, §3, §4

NCI-H650 = settings: Homo sapiens
Description: as §1, §2, §3, §4

NCI-H1876 = settings: Homo sapiens
Description: as §1, §2, §3, §4

SW 480 = settings: Homo sapiens, SW480; SW 480, KRAS (G12V)
Description: as §1, §2, §3, §4

AML-193 = settings: Homo sapiens
Description: as §1, §2, §3, §4

HCT-15 = settings: Homo sapiens
Description: as §1, §2, §3, §4

HT-1197 = settings: Homo sapiens, HT1197
Description: as §1, §2, §3, §4

NCI-H1944 = settings: Homo sapiens
Description: as §1, §2, §3, §4

SK-LU-1 = settings: Homo sapiens; SK-LU-1, KRAS (G12D)
Description: as §1, §2, §3, §4

RL95-2 = settings: Homo sapiens
Description: as §1, §2, §3, §4

NCI-H727 = settings: Homo sapiens; NCI-H727, KRAS (G12V)
Description: as §1, §2, §3, §4

NCI-H2030 = settings: Homo sapiens; NCI-H2030, KRAS (G12C)
Description: as §1, §2, §3, §4

MM.1S = settings: Homo sapiens, MM1.S
Description: as §1, §2, §3, §4

HCT-116 = settings: Homo sapiens
Description: as §1, §2, §3, §4

CO[C@@H](C)c1ncc(N2CCN(C)CC2)cc1-c1c2c3cc(cc4c3n1CCC4)-c1csc(n1)C[C@H](NC(=O)[C@H]1[C@H](C)[C@@H]1C)C(=O)N1CCC[C@H](N1)C(=O)OCC(C)(C)C2 (atropisomer, axis not shown; (M)) [Example 24, (1r,2R,3S)-N-[(7S,13S)-(20M)-20-[2-[(1S)-1-methoxyethyl]-5-(4-methylpiperazin-1-yl)-3-pyridyl]-17,17-dimethyl-8,14-dioxo-15-oxa-4-thia-9,21,30,31-tetrazahexacyclo[23.3.1.1^2,5.1^9,13.0^19,27.0^21,26]hentriaconta-1 (28),2,5 (31), 19,25 (29),26-hexaen-7-yl]-2,3-dimethyl-cyclopropanecarboxamide]
IC50 (OCI-AML-3; OCI-AML-3, NRAS (p.Q61L), read-out: IC50): 3.3 nM | IC50 (CHL1): 8.1 nM | IC50 (UMC-11): 100 nM | IC50 (HPAC): 0.31 nM | IC50 (MDA-MB-231; MDA-MB-231, KRAS (G13D), read-out: IC50): 27 nM | IC50 (NCI-H929; NCI-H929, NRAS (p.G13D), read-out: IC50): 7.3 nM | IC50 (NCI-H2135; NCI-H2135, NRAS (p.Q61K), read-out: IC50): 0.71 nM | IC50 (DLD-1; DLD-1, KRAS (G13D), read-out: IC50): 18 nM | IC50 (Panc 02.03): 3.2 nM | IC50 (NCI-H1792): 0.21 nM | IC50 (LoVo; KRAS (G13D), read-out: IC50): 0.55 nM | IC50 (SNU-387; SNU-387, NRAS (p.Q61K), read-out: IC50): 0.43 nM | IC50 (SKM-1; SKM-1, KRAS (K117N), read-out: IC50): 0.93 nM | IC50 (HCT-8; HCT-8, KRAS (G13D), read-out: IC50): 80 nM | IC50 (NCI-H650): 2.3 nM | IC50 (NCI-H1876; NCI-H1876, NRAS (p.Q61K), read-out: IC50): 3.1 nM | IC50 (SW 480): 1.2 nM | IC50 (AML-193; AML-193, NRAS (p.G13V), read-out: IC50): 1.1 nM | IC50 (HCT-15; HCT-15, KRAS (G13D), read-out: IC50): 100 nM | IC50 (HT-1197; HT-1197, NRAS (p.Q61R), read-out: IC50): 1.4 nM | IC50 (NCI-H1944; NCI-H1944, KRAS (G13D), read-out: IC50): 1.6 nM | IC50 (SK-LU-1): 0.5 nM | IC50 (RL95-2; RL95-2, HRAS (p.Q61H), read-out: IC50): 1.3 nM | IC50 (NCI-H727): 0.14 nM | IC50 (NCI-H2030): 0.34 nM | IC50 (MM.1S; MM.1S, KRAS (G12A), read-out: IC50): 0.3 nM | IC50 (HCT-116; HCT-116, KRAS (G13D), read-out: IC50): 1.9 nM

CCn1c(-c2cc(N3CCN(C)CC3)cnc2[C@H](C)OC)c2c3cc(ccc31)-c1csc(n1)C[C@H](NC(=O)[C@H]1C[C@@H]1C)C(=O)N1CCC[C@H](N1)C(=O)OCC(C)(C)O2 [Example A122, reference compound]
IC50 (OCI-AML-3; OCI-AML-3): 8.9 nM | IC50 (CHL1): 9.3 nM | IC50 (UMC-11): 100 nM | IC50 (HPAC): 0.3 nM | IC50 (MDA-MB-231; MDA-MB-231): 20 nM | IC50 (NCI-H929; NCI-H929): 8.7 nM | IC50 (NCI-H2135): 1.2 nM | IC50 (DLD-1; DLD-1): 20 nM | IC50 (Panc 02.03): 5.2 nM | IC50 (NCI-H1792): 0.43 nM | IC50 (LoVo): 0.36 nM | IC50 (SNU-387; SNU-387): 1.1 nM | IC50 (SKM-1; SKM-1): 1.3 nM | IC50 (HCT-8; HCT-8): 69 nM | IC50 (NCI-H650): 9.6 nM | IC50 (NCI-H1876): 3.6 nM | IC50 (SW 480): 2 nM | IC50 (AML-193): 2.1 nM | IC50 (HCT-15; HCT-15): 100 nM | IC50 (HT-1197): 2.5 nM | IC50 (NCI-H1944; NCI-H1944): 1.7 nM | IC50 (SK-LU-1): 0.56 nM | IC50 (RL95-2; RL95-2): 2.6 nM | IC50 (NCI-H727): 0.16 nM | IC50 (NCI-H2030): 0.56 nM | IC50 (MM.1S): 0.55 nM | IC50 (HCT-116; HCT-116): 1.9 nM
